# What was measured:
# Assay in all cases: Greenhouse whole-plant imazapir dose response (Example 8)
# Type in all cases: in vivo, Helianthus annuus
# [1] = test system: sunflower TH6 (Hybrid, A122T); settings: 14 DAT
# Description: (§1) A greenhouse study was conducted to quantify and contrast the imazapir sensitivity of the mutants A122T and A205V in different genetic backgrounds at the whole plant level in sunflower. Seeds of the different sunflower lines that were used in this study were obtained under field conditions.
# (§2) Seeds were sown in Petri dishes and, after germination, plantlets were transplanted to pots of 10 cm of diameter in a potting media consisting of equal parts of vermiculite, soil and sand. Plants were grown in a greenhouse under natural light conditions supplemented with 400 W sodium halide lamps to provide a 16 hrs daylength. Day/night temperatures were 25 and 20° C., respectively. At the V2 stage 10 plants of each genotype were randomly assigned to each treatment consisting of […] imazapir doses (0, 40, 80, 160, 240, 320, 400 and 480 g ai/ha), and a zero-time biomass determination. Experiment was arranged as a randomized block design with a full factorial (sunflower line×treatment) arrangement of treatments and 10 replications.
# (§3) On the day of herbicide application ten plants of each genotype were cut at the cotyledonal node and dried at 60° C. for 48 hrs zero-time for dried weight determination. […] Height was determined as the distance between the cotyledonal node and the apex of each plant. For root biomass determination, each plant was taken from the pot and the potting media was washed out from the roots. Above ground biomass data from each line were converted to biomass accumulation after application by subtracting the appropriate average zero-time biomass from each sample. Dry biomass data were converted to percentages of the untreated control plants within each line to allow direct comparisons between groups.
# [2] = test system: sunflower TH9 (Hybrid, A205V); settings: 14 DAT
# Description: as §1, §2, §3
# [3] = test system: sunflower GIM 5-7 (Manteiner Line, A205V); settings: GIM5-7, 14 DAT
# Description: as §1, §2, §3
smiles,measurement,setting,value
"CC(C)C1(C)N=C(c2ncccc2C(=O)O)NC1=O (stereo not drawn) [imazapir, imazapyr]",plant height (% of untreated),[1]; 3× (240 g ai/ha),99.6%
same,root dry weight (% of untreated),[1]; 3× (240 g ai/ha),79.3%
same,Phytotoxicity Index,[1]; 4× (320 g ai/ha),0.5
same,"biomass accumulation (dry biomass, % of untreated)",[1]; 4× (320 g ai/ha),97.8%
same,plant height (% of untreated),[1]; 4× (320 g ai/ha),101.0%
same,root dry weight (% of untreated),[1]; 4× (320 g ai/ha),78.4%
same,Phytotoxicity Index,[1]; 5× (400 g ai/ha),0.5
same,"biomass accumulation (dry biomass, % of untreated)",[1]; 5× (400 g ai/ha),85.1%
same,plant height (% of untreated),[1]; 5× (400 g ai/ha),87.0%
same,root dry weight (% of untreated),[1]; 5× (400 g ai/ha),85.8%
same,Phytotoxicity Index,[1]; 6× (480 g ai/ha),0.5
same,"biomass accumulation (dry biomass, % of untreated)",[1]; 6× (480 g ai/ha),79.5%
same,plant height (% of untreated),[1]; 6× (480 g ai/ha),79.6%
same,root dry weight (% of untreated),[1]; 6× (480 g ai/ha),57.3%
same,Phytotoxicity Index,[2]; 0.5× (40 g ai/ha),0
same,"biomass accumulation (dry biomass, % of untreated)",[2]; 0.5× (40 g ai/ha),91.7%
same,plant height (% of untreated),[2]; 0.5× (40 g ai/ha),100.0%
same,root dry weight (% of untreated),[2]; 0.5× (40 g ai/ha),81.5%
same,Phytotoxicity Index,[2]; 1× (80 g ai/ha),0
same,"biomass accumulation (dry biomass, % of untreated)",[2]; 1× (80 g ai/ha),81.7%
same,plant height (% of untreated),[2]; 1× (80 g ai/ha),100.0%
same,root dry weight (% of untreated),[2]; 1× (80 g ai/ha),84.9%
same,Phytotoxicity Index,[2]; 2× (160 g ai/ha),1.6
same,"biomass accumulation (dry biomass, % of untreated)",[2]; 2× (160 g ai/ha),54.7%
same,plant height (% of untreated),[2]; 2× (160 g ai/ha),78.9%
same,root dry weight (% of untreated),[2]; 2× (160 g ai/ha),58.8%
same,Phytotoxicity Index,[2]; 3× (240 g ai/ha),5.1
same,"biomass accumulation (dry biomass, % of untreated)",[2]; 3× (240 g ai/ha),35.7%
same,plant height (% of untreated),[2]; 3× (240 g ai/ha),50.0%
same,root dry weight (% of untreated),[2]; 3× (240 g ai/ha),34.1%
same,Phytotoxicity Index,[2]; 4× (320 g ai/ha),8.4
same,"biomass accumulation (dry biomass, % of untreated)",[2]; 4× (320 g ai/ha),25.3%
same,plant height (% of untreated),[2]; 4× (320 g ai/ha),38.1%
same,root dry weight (% of untreated),[2]; 4× (320 g ai/ha),27.3%
same,Phytotoxicity Index,[2]; 5× (400 g ai/ha),8.9
same,"biomass accumulation (dry biomass, % of untreated)",[2]; 5× (400 g ai/ha),19.8%
same,plant height (% of untreated),[2]; 5× (400 g ai/ha),31.8%
same,root dry weight (% of untreated),[2]; 5× (400 g ai/ha),29.9%
same,Phytotoxicity Index,[2]; 6× (480 g ai/ha),8.9
same,"biomass accumulation (dry biomass, % of untreated)",[2]; 6× (480 g ai/ha),19.5%
same,plant height (% of untreated),[2]; 6× (480 g ai/ha),34.7%
same,root dry weight (% of untreated),[2]; 6× (480 g ai/ha),22.1%
same,"biomass accumulation (dry biomass, % of untreated)",[3]; 0.5× (40 g ai/ha),92.9%
same,plant height (% of untreated),[3]; 0.5× (40 g ai/ha),79.1%
same,root dry weight (% of untreated),[3]; 0.5× (40 g ai/ha),79.2%
same,"biomass accumulation (dry biomass, % of untreated)",[3]; 1× (80 g ai/ha),75.1%
same,plant height (% of untreated),[3]; 1× (80 g ai/ha),76.7%
same,root dry weight (% of untreated),[3]; 1× (80 g ai/ha),56.3%
same,"biomass accumulation (dry biomass, % of untreated)",[3]; 2× (160 g ai/ha),55.1%
same,plant height (% of untreated),[3]; 2× (160 g ai/ha),57.7%
same,root dry weight (% of untreated),[3]; 2× (160 g ai/ha),40.6%
same,"biomass accumulation (dry biomass, % of untreated)",[3]; 3× (240 g ai/ha),45.6%
same,plant height (% of untreated),[3]; 3× (240 g ai/ha),55.3%
same,root dry weight (% of untreated),[3]; 3× (240 g ai/ha),40.2%
same,"biomass accumulation (dry biomass, % of untreated)",[3]; 4× (320 g ai/ha),31.8%
same,plant height (% of untreated),[3]; 4× (320 g ai/ha),27.3%
same,root dry weight (% of untreated),[3]; 4× (320 g ai/ha),34.0%
same,"biomass accumulation (dry biomass, % of untreated)",[3]; 5× (400 g ai/ha),34.2%
same,plant height (% of untreated),[3]; 5× (400 g ai/ha),37.2%
same,root dry weight (% of untreated),[3]; 5× (400 g ai/ha),48.5%
same,"biomass accumulation (dry biomass, % of untreated)",[3]; 6× (480 g ai/ha),36.8%
same,plant height (% of untreated),[3]; 6× (480 g ai/ha),30.0%
same,root dry weight (% of untreated),[3]; 6× (480 g ai/ha),43.1%

# From patent publication US20150176022A1, “HERBICIDE-RESISTANT SUNFLOWER PLANTS, POLYNUCLEOTIDES ENCODING HERBICIDE=RESISTANT ACETO HYDROXY ACID SYNTHASE LARGE SUBUNIT PROTEINS, AND METHODS OF USE” (priority 2013, published 2015)
